These results are taken from EPA's ToxValDB 9.5 (doi:10.2903/j.efsa.2017.4790).

In general, NOAEL refers to the highest dose or exposure tested at which no adverse effect was seen.

One data set deals with Folsomia candida. As to conditions: chronic/long-term; mortality.
Another data set has as its system Colinus virginianus. As to conditions: acute, oral, mortality.
In another data set the test system is Canidae. The following applies: chronic; duration: 1 years; oral; Dog Other; organ weight.
The subject of a further data set is Rattus norvegicus. The following applies: for LD50: acute, mortality.
The next data set relates to Apis mellifera. The following applies: acute, mortality.
The subject of the next data set is Daphnia magna. As to conditions: chronic/long-term; duration: 21 days; reproduction.
Another data set has as its system Oncorhynchus mykiss. The following applies: chronic/long-term; duration: 21 days; behavior.

`CCCCCCC(=O)Oc1c(Br)cc(C#N)cc1Br` [Bromoxynil heptanoate]: the NOAEL in the data set with Anas platyrhynchos (reproductive) turned out to be 15.9 mg/kg-day; in the data set on Canidae, 0.3 mg/kg-day; in the data set on Rattus norvegicus (developmental, development) it was 4 mg/kg-day. The compound further gave an NOEC in the data set with Folsomia candida of 70.5 mg/kg. The LD50 is 1900 mg/kg-day with Colinus virginianus (diet); 379 mg/kg-day in the data set on Colinus virginianus; 292 mg/kg-day in the data set on Rattus norvegicus (F); over 201 µg/piece in the data set on Apis mellifera (dermal); over 201 µg/piece with Apis mellifera (oral, unspecified).
`N#Cc1cc(Br)c(O)c(Br)c1` [Bromoxynil]: the NOAEL with Anas platyrhynchos (reproductive) was 10.9 mg/kg-day; in the data set with Canidae, 0.3 mg/kg-day; with Rattus norvegicus (developmental, development), 4 mg/kg-day; in the data set on Rattus norvegicus (reproduction developmental, body weight), 3.39 mg/kg-day. In addition, the NOEC in the data set on Daphnia magna turned out to be 3.1 mg/L; in the data set with Folsomia candida it was 56 mg/kg; with Oncorhynchus mykiss, 2 mg/L.
Consider `CCCC(=O)Oc1c(Br)cc(C#N)cc1Br` [Bromoxynil butyrate], for which, in the data set with Anas platyrhynchos (chronic/long-term), the no observed adverse effect level (NOAEL) came to 15.9 mg/kg-day. Further, the NOEC in the data set on Folsomia candida was found to be 125 mg/kg. Moreover, the LD50 in the data set on Colinus virginianus (diet) is over 190 mg/kg-day; in the data set on Colinus virginianus it was 420 mg/kg-day; with Rattus norvegicus (M/F), 116 mg/kg-day; in the data set with Apis mellifera (dermal), 199 µg/piece; in the data set with Apis mellifera (oral, unspecified) it was 76.4 µg/piece.
